Values quoted from earlier work, collected in article PMC3989431 (Peptides, 2013).

System: H. zea pupae
Details: earlier in vivo bioassay

## AWFGPRLa
  in vivo activity: without in vivo activity
